From patent US8716521B2 (priority 2008, dated 2014)
Counter-ions that a name gives are not always drawn. Like-named read-outs stand apart in the source and are kept apart here.

Assays:
[1] = aqueous solution in the narrow pH range of solubility
[2] = Stability in solution at 1 mg/mL, effect of pH (vinyl sulfone generation); assay type: physicochemical; conditions: 1 mg/mL in 0.1 M citrate buffer
Experimental: A stability study was performed by monitoring vinyl sulfone generation. Canfosfamide hydrochloride was dissolved at 1 mg/mL into 0.1 M citrated buffer from pH 4.5 to pH 6.5. The solutions were incubated at 25° C. for 24 hours. Vinyl sulfone generation was monitored.

[3] = Vinyl sulfone degradation on titration with NaOH
[4] = Dissolution rate and vinyl sulfone generation during compounding at different temperatures; assay type: physicochemical; conditions: for dissolution time: 50 mL batch size
Text: The following items are some critical issues for the compounding of the drug product. • If the solution pH is higher than target pH, it can be titrated with 1.0 NHCL to the target pH. If the pH is too low, it will not be possible to back titrate with NaOH due to the sensibility of canfosfamide hydrochloride to alkaline environment. • Due to the acidity of the drug substance, the rate of dissolution of drug substance influences the pH of the compounding solution. A quick dissolution could reduce the pH faster and therefore reduce the time of exposure of the drug to high pH. […] The solution was then analyzed by HPLC.
An additional study of two liter batch size was conducted. Canfosfamide hydrochloride was dissolved into three batches of pH 6.5, 0.1 M citrate buffer and monitored at different temperatures; 5° C., 20° C. and 40° C. […] In the second batch at 20° C. (room temperature), the drug was totally dissolved after 20 minutes. […] The third batch consisted of adding drug at room temperature and allowing the temperature to increase to 40° C. over 90 minutes. […] These experiments support controlling the compounding procedure at room temperature until all drug is dissolved and filtered.

[5] = not given; remark: listed apart in the source
[6] = pH and osmolality of 50 mg/mL solution in citrate buffer
Text: The solubility of canfosfamide hydrochloride depends on the concentration and initial pH of buffer system.

Compound: N[C@@H](CCC(=O)N[C@@H](CS(=O)(=O)CCOP(=O)(N(CCCl)CCCl)N(CCCl)CCCl)C(=O)N[C@@H](C(=O)O)c1ccccc1)C(=O)O [Canfosfamide]
- time aqueous formulations are stable before decomposition products are observed [1]: 6 to 12 h

Compound: N[C@@H](CCC(=O)N[C@@H](CS(=O)(=O)CCOP(=O)(N(CCCl)CCCl)N(CCCl)CCCl)C(=O)N[C@@H](C(=O)O)c1ccccc1)C(=O)O [canfosfamide hydrochloride]
- % Purity 25° C. (3 Month, bulk solution 50 mg/mL at pH 4.6, data is ± 2%): 69%
- % Purity 25° C. (Day 0, bulk solution 50 mg/mL at pH 4.6, data is ± 2%): 92%
- % Purity 25° C. (Day 3, bulk solution 50 mg/mL at pH 4.6, data is ± 2%): 93%
- % Purity 25° C. (Day 7, bulk solution 50 mg/mL at pH 4.6, data is ± 2%): 89%
- % Purity 25° C. (Day 28, bulk solution 50 mg/mL at pH 4.6, data is ± 2%): 84%
- % Purity 25° C. (Day l, bulk solution 50 mg/mL at pH 4.6, data is ± 2%): 89%
- Percent vinyl sulfone at 25° C. ([2]; pH 4.5, 6 hrs): 0.1%
- Percent vinyl sulfone at 25° C. ([2]; pH 4.5, 24 hrs): 0.4%
- Percent vinyl sulfone at 25° C. ([2]; pH 5.0, 6 hrs): 0.2%
- Percent vinyl sulfone at 25° C. ([2]; pH 5.0, 24 hrs): 1.1%
- Percent vinyl sulfone at 25° C. ([2]; pH 5.5, 6 hrs): 0.6%
- Percent vinyl sulfone at 25° C. ([2]; pH 5.5, 24 hrs): 2.9%
- Percent vinyl sulfone at 25° C. ([2]; pH 6.0, 6 hrs): 1.7%
- Percent vinyl sulfone at 25° C. ([2]; pH 6.0, 24 hrs): 8.2%
- Percent vinyl sulfone at 25° C. ([2]; pH 6.5, 6 hrs): 6.6%
- Percent vinyl sulfone at 25° C. ([2]; pH 6.5, 24 hrs): 24.2%
- content of vinyl sulfone before titration ([3]; 50 mg/mL in pH 4.3 citrate buffer): 0.64%
- content of vinyl sulfone after titration ([3]; 50 mg/mL in pH 4.3 citrate buffer titrated with 0.1 N NaOH to pH 4.5): 1.3%
- content of vinyl sulfone after titration ([3]; 50 mg/mL in pH 4.3 citrate buffer titrated with 1.0 N NaOH to pH 4.5): 6.5%
- dissolution time ([4]; 5° C.): 45 min
- dissolution time ([4]; room temperature): 25 min
- vinyl sulfone generated at 5° C. versus room temperature ([4]; during dissolution, HPLC): not significantly different
- dissolution observation ([4]; two liter batch, pH 6.5 0.1 M citrate buffer, 5° C., after 80 minutes): minor particles were observed
- time to total dissolution ([4]; two liter batch, pH 6.5 0.1 M citrate buffer, 20° C. (room temperature)): 20 min
- vinyl sulfone generated ([4]; two liter batch, temperature increased from room temperature to 40° C. over 90 minutes): higher than the two previous batches
- solubility (physchem; citrate buffer, pH 5.5, aqueous buffer): 174 mg/mL
- solubility (physchem; water): ~2 mg/mL
- amount dissolved by citrate buffer ([5]; 0.1 M citrate buffer at pH 6.5): approximately 100 mg/mL
- pH at which soluble ([5]; aqueous): above 4.2
- pH at which stability is limited ([5]; aqueous): > 5.0
- pH of solution ([6]; 50 mg/mL dissolved in 0.1 M citrate buffer at pH 6.5): about 4.6
- osmolality ([6]; 50 mg/mL in 100 mM citrate buffer): about 400 mM
